Like-named read-outs stand apart in the source and are kept apart here. Each block holds one compound with its values, some of them ahead of it.
How the values were obtained:
[1] = biological target: T1, skeletal muscle CRC (skeletal muscle ryanodine receptor RyR1) (Oryctolagus cuniculus, UniProt P11716); assay: single channel activity (open probability) of skeletal muscle Ca2+ release channel reconstituted in planar lipid bilayer; assay type: biochemical, rabbit (New Zealand White); conditions: sub-micromolar 4-MmC; FIG. 5
T1 construct: heavy sarcoplasmic reticulum vesicles from fast twitch skeletal muscle fused to planar lipid bilayer; single channel recording
Protocol: Fast twitch skeletal muscle sarcoplasmic reticulum was isolated from New Zealand White rabbit, a rich source of skeletal receptors. Following isolation of a crude fraction, the SR was placed on a discontinuous sucrose gradient and a heavy fraction (HSR) was used for all single channel experiments. Ca^2+ release channel reconstitution into a bilayer membrane was carried out by the addition of SR vesicles to the cis side of a planar bilayer lipid membrane. Bilayers, made with a 5:3:2 mixture of phosphatidylethanolamine:phosphatidylserine:phosphatidylcholine (Avanti Polar Lipids) at 50 mg/ml in decane, were formed across a 150 μm hole drilled in a polystyrene cup separating two chambers of 0.7 ml each. The cis chamber contained 400 mM cesium methane sulfonate (CsMS), 50 μM CaCl2, 25 mM HEPES, pH 7.4, while the trans side contained 40 mM CsMS, 25 mM HEPES pH 7.4. SR vesicles, suspended in 0.4-0.6 M sucrose, 400 mM CsMS were added to the cis chamber at a final concentration of 5-20 μg/ml. […] Channel activity was then measured at a holding potential of +25 mV with respect to the trans (ground) side. […] The data were interfaced through a Digidata 1322A 16 bit data Acquisition System (Axon Instruments), stored filtered at 1 kHz and analyzed for single channel activity using pCLAMP software package (version 9.0, Axon Instruments, Burlingame, Calif.).

[2] = electron donor activity (XTT reduction); assay type: physicochemical; conditions: Michaelis-Menten fit, read-out: Kd (concentration at which half maximal electron donor activity is observed)
Protocol: (§1) A sample buffer containing a compound to be tested and a photo-reactive dye (i.e., 10 μM methylene blue, eosin B or erythrosin B) can be continuously illuminated with white light (e.g., about 10 cm away from a halogen 20 W light source) and its spectral characteristics monitored as a function of time (e.g., using a HP8452A diode array spectrophotometer). This can be performed in the presence of oxygen. In general, oxygen dissolved in the solution may decrease the photochemical activity of the dye. To compensate and to increase the sensitivity of the method, a comparatively high light intensity can be used (e.g., in the range of about 1-3 mW/cm^2).
(§2) To determine if a compound is an electron acceptor, an electron donor (e.g., NADH or EDTA) can be added to the sample buffer to supply electrons to the photo-excited dye. The electron donor reduces the concentration of the dye cation radical and maintains an increased concentration of the dye anion radical. To test whether a compound is an electron donor, no separate electron donor is necessary. In both cases, a probe can be added (e.g., NBD-Cl or XTT) to react with superoxide and produce a detectable product. The product can be measured, for example, as an increase in absorbance at 470 nm. The difference between the probe absorbance at 470 nm in the presence of the compound to be tested and a control without the compound can be taken as a measure of redox activity of the compound.
When oxygen is unable to intercept all electrons from the dye anion radical, the dye anion radical may disproportionate and form a colorless compound. This process also may serve as a detectable variable corresponding to the redox activity of the tested compound. A compound with electron-acceptor properties intercepts electrons from dye anion radical and thus slows down the rate of dye photo-bleaching. A compound with electron-donor properties donates electrons to the dye cation radical, thus stabilizing the dye anion radical and increasing the rate of dye photo-bleaching. See also International Publication No. WO 2006/086670. […]

[3] = biological target: T2, RyR1 (skeletal muscle CRC) (Oryctolagus cuniculus, UniProt P11716); assay: Single Ca2+ channel analysis: open probability of skeletal muscle CRC reconstituted in planar bilayer; assay type: biochemical, rabbit
T2 construct: from tissue; host or cells: fast twitch skeletal muscle of New Zealand White rabbit, heavy sarcoplasmic reticulum fraction
T2 sequence (P11716 whole entry): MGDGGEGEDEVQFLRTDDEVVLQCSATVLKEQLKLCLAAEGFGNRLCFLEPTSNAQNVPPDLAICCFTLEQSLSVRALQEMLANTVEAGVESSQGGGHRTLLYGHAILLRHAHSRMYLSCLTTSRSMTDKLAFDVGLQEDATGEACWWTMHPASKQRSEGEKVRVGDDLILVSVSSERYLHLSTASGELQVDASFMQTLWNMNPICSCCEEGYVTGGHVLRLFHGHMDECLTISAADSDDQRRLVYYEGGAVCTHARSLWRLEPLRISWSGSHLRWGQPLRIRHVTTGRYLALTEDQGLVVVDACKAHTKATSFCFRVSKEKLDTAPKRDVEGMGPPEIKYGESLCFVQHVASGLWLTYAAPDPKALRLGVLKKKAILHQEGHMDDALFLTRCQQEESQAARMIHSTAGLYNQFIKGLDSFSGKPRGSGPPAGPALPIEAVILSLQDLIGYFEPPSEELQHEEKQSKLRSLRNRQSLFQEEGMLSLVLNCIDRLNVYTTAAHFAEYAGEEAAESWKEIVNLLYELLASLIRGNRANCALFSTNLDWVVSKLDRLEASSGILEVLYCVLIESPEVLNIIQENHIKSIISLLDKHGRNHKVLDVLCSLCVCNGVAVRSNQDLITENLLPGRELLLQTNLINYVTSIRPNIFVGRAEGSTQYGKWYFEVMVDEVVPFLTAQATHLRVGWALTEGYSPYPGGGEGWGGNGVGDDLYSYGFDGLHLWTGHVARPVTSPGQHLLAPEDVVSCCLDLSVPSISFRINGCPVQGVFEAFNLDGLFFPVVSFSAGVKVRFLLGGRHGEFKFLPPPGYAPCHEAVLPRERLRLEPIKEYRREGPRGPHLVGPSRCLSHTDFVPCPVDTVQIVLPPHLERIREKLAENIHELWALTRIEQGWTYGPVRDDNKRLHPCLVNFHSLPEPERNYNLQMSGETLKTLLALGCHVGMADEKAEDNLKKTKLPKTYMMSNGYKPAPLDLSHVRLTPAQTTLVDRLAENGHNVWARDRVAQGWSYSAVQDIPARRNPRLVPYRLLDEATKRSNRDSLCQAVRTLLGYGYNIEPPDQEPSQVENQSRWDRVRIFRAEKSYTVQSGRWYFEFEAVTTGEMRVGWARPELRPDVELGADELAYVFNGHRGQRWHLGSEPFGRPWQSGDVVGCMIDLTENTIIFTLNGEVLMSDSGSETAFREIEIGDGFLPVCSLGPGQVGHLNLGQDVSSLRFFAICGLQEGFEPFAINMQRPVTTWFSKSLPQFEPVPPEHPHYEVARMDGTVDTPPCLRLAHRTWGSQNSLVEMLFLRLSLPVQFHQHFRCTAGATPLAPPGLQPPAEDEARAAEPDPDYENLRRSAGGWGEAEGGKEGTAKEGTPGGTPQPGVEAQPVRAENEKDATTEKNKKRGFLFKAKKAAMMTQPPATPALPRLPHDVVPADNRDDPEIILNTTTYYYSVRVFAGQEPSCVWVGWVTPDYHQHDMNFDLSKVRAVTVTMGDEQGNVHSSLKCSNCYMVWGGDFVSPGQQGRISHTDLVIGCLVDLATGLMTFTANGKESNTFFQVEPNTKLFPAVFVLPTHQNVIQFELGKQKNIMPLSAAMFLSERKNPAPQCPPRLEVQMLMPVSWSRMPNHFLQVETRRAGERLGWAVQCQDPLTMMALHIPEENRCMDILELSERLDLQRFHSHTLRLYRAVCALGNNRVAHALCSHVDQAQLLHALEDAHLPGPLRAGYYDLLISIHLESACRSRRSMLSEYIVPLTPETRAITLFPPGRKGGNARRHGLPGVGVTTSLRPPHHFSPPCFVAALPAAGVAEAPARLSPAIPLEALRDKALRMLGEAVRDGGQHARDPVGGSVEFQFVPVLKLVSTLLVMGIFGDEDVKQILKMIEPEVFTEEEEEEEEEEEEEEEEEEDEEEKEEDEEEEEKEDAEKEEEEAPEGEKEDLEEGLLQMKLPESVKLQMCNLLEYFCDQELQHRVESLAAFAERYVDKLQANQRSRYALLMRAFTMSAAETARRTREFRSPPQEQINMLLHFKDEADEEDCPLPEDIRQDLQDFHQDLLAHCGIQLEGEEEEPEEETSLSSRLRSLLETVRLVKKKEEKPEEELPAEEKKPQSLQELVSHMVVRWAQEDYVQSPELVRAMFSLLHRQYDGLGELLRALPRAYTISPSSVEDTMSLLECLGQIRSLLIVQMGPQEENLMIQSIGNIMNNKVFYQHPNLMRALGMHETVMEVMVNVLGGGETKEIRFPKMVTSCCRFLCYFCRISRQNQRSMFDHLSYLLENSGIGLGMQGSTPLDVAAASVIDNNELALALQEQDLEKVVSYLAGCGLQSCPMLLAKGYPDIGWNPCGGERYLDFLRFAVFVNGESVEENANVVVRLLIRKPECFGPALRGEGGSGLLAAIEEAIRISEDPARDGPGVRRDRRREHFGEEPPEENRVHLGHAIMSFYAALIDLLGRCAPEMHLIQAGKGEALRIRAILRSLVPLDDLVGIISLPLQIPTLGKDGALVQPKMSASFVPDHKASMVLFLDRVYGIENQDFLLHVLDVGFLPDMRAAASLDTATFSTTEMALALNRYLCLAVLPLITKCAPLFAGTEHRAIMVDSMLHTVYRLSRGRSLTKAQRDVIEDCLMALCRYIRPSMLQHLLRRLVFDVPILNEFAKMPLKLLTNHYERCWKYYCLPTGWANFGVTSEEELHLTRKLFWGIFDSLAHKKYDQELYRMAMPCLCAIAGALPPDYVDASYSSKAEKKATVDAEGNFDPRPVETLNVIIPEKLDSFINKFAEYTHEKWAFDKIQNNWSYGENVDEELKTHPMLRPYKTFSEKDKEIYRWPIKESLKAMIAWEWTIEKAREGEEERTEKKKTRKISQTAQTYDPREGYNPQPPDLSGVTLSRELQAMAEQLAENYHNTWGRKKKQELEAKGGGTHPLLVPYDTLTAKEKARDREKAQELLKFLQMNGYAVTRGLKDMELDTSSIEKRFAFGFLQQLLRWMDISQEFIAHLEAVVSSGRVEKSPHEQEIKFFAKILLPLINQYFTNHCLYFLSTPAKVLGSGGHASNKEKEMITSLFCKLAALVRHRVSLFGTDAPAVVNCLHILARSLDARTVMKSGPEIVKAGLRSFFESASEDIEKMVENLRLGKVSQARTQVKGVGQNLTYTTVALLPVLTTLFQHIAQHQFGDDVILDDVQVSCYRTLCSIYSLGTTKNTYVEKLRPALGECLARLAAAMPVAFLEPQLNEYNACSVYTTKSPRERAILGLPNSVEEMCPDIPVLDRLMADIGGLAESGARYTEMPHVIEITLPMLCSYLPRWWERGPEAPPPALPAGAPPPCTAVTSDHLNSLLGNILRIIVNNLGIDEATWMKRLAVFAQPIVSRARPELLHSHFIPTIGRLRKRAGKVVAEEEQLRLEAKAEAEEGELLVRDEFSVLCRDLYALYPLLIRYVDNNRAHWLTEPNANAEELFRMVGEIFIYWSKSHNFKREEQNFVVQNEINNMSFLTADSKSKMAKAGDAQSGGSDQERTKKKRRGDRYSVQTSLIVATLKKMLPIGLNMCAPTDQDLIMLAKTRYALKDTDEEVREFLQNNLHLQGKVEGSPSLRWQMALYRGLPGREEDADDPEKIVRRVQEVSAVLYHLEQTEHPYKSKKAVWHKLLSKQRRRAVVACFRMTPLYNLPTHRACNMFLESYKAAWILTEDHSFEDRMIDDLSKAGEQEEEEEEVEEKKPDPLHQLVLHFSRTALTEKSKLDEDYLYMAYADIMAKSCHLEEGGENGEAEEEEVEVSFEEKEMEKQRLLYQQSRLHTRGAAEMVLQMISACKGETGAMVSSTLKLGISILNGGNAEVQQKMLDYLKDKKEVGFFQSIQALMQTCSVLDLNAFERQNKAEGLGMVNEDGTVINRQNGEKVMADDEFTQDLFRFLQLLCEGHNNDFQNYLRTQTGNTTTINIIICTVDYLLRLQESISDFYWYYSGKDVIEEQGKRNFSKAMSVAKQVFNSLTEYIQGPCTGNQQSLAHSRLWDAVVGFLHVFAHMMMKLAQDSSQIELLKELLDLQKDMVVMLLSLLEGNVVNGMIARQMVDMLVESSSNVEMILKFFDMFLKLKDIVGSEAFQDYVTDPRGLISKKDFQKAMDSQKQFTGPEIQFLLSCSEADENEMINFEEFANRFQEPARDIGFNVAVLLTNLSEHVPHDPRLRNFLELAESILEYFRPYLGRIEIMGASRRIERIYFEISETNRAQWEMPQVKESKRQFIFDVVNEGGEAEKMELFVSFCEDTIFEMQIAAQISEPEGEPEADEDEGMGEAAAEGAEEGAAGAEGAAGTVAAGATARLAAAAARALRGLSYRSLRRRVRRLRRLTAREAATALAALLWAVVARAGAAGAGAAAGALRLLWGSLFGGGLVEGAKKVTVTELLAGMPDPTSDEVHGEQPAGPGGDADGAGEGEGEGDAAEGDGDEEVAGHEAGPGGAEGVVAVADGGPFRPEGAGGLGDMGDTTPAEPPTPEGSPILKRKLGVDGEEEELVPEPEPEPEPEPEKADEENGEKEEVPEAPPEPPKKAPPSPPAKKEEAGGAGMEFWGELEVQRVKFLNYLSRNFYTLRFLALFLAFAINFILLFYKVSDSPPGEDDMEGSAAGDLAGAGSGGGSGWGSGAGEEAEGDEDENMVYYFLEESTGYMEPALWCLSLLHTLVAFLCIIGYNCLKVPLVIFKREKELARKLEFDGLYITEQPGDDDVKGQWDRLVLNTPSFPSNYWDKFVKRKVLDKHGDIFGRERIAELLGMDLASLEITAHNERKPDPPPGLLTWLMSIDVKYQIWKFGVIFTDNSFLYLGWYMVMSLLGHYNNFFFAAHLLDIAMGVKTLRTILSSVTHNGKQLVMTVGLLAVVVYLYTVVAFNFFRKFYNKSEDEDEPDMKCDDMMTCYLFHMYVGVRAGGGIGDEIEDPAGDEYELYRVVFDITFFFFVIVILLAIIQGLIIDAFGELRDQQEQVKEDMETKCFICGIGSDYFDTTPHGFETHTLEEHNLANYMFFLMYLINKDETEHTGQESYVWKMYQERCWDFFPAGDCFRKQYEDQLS
T2 sequence (P62943 2-108 partner limits assumed): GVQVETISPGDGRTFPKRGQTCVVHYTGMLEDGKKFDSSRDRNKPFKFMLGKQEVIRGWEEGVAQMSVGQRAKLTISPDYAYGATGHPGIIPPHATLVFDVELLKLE
Protocol: Fast twitch skeletal muscle sarcoplasmic reticulum was isolated from New Zealand White rabbit, a rich source of skeletal receptors. Following isolation of a crude fraction, the SR was placed on a discontinuous sucrose gradient and a heavy fraction (HSR) was used for all single channel experiments. Ca^2+ release channel reconstitution into a bilayer membrane was carried out by the addition of SR vesicles to the cis side of a planar bilayer lipid membrane. Bilayers, made with a 5:3:2 mixture of phosphatidylethanolamine:phosphatidylserine:phosphatidylcholine (Avanti Polar Lipids) at 50 mg/ml in decane, were formed across a 150 μm hole drilled in a polystyrene cup separating two chambers of 0.7 ml each. […] SR vesicles, suspended in 0.4-0.6 M sucrose, 400 mM CsMS were added to the cis chamber at a final concentration of 5-20 μg/ml.

[4] = system: Langendorff perfused rabbit hearts; assay: Dofetilide-induced arrhythmia (LQT2, EADs/TdP) in Langendorff perfused rabbit hearts; assay type: in vivo
Protocol: (§3) FIG. 12A plots the transmembrane potential (Vm) and intracellular calcium level (Cai) over a 3-second period five minutes after administration of dofetilide (0.5 μM). FIG. 12B plots the transmembrane potential (Vm) and intracellular calcium level (Cai) over a 3-second period ten minutes after administration of dofetilide (0.5 μM).
(§4) EADs are triggered by spontaneous SR Ca^2+ release and increase in severity or frequency leading to TdP after a few minutes.

ventricular myocytes = conditions: independent of the presence of FKBP12.6; Hunt et al. 2007; cited from earlier work
[5] = system: TNF-α female perfused mouse hearts; assay: Ca2+ transients in Langendorff perfused mouse heart (Rhod-2 fluorescence); assay type: in vivo; conditions: for effect on Ca2+ transients, in words: nanomolar concentrations
Excerpt: Ca^2+i transients were monitored in a Langendorff perfused mouse heart using Rhod-2 fluorescence.
It is believed that the faster and larger Ca^2+ transient is due to an increase in Ca^2+ load in the lumen of the SR caused by a reduced Ca^2+ “leak” from the SR.

[6] = system: Langendorff perfused rabbit hearts; assay: arrhythmia induced by dofetilide in Langendorff perfused rabbit hearts; assay type: in vivo; conditions: with dofetilide 0.5 μM
Protocol: as §3, §4

[7] = biological target: reactive thiols on the RyR/CRC (Oryctolagus cuniculus, UniProt P11716); assay: Redox potential of reactive thiols on RyR from rate of ryanodine binding vs solution redox potential; assay type: biochemical; conditions: tetracaine 25 μM; control (20 μM Ca2+) −160.3±3.2 mV
RyR1 = RyR1 (Oryctolagus cuniculus, UniProt P11716); assay: Thiol content of isolated RyR1 by CPM fluorescence; assay type: biochemical; conditions: 10 mM tetracaine; control ~47 thiols per monomeric receptor
Sequence of RyR1 (P11716 whole entry): as the sequence (P11716 whole entry) above

[8] = Electron donor activity: initial rate of XTT reduction; assay type: physicochemical; conditions: initial rate of XTT reduction fit to Michaelis-Menton equation; read-out: Kd, concentration at which half maximal electron donor activity is observed
Protocol: as §1
as §2, with “In both cases, a probe can be added (e.g., NBD-Cl or XTT) to react with superoxide and produce a detectable product.” left out, “compound. […]” for “compound.”

[9] = skeletal muscle CRC, four parameter logistic curve fit, FIG. 2, read-out: IC50, concentration required to half maximally inhibit single channel activity

Compound: CN(CCOc1ccc(NS(C)(=O)=O)cc1)CCc1ccc(NS(C)(=O)=O)cc1 [Dofetilide, dofetilide, reference compound]
time to elicit EADs ([4]; dofetilide 0.5 μM): 5 min
pro-arrhythmic effect, in words ([4]; dofetilide 0.5 μM, panel B, ten minutes): promotes TdP

Compound: COc1ccc2c(c1)CN(C(=O)CCN1CCC(Cc3ccccc3)CC1)CCS2 [K201, reference compound]
spontaneous Ca2+ release (ventricular myocytes): suppresses spontaneous Ca^2+ release in ventricular myocytes
Kd [2]: 28 µM

Compound: COc1ccc2c(c1)CN(C(=O)CCN1CCC(Cc3ccccc3)CC1)CCS2 [K201]
concentration at which amplitude of Ca2+ transients was adversely affected ([5]; mouse, in vivo): 10 to 25 µM
effect on Ca2+ transients, in words [5]: enhance Ca^2+ transients
effect on channel activity in the absence of FKBP12, in words ([3]; 10 μM K201 after 20 μM FK506): still inhibited channel activity
open probability Po ([3]; +5 μM K201, 20 μM Ca2+, control Po=0.107, FIG. 8B): 0.060
open probability Po ([3]; +10 μM K201, 20 μM Ca2+, control Po=0.107, FIG. 8C): 0.047
open probability Po ([3]; +10 μM K201 on FK506-treated (20 μM) channel, Po=0.106 before, FIG. 9C): 0.009
IC50 ([3]; IC50 for K201 inhibition of RyR1, FIG. 2, as restated in Example 4, unit inferred): ~4 µM
IC50 [3, 9]: 3.98 ± 0.79 µM

Compound: COc1ccc2c(c1)CN(C(=O)CCN1CCC(Cc3ccc4c(c3)OCO4)CC1)CCS2 [[1,3]dioxole derivative, 3-(4-(benzo[d][1,3]dioxol-5-ylmethyl)piperidin-1-yl)-1-(7-methoxy-2,3-dihydrobenzo[f][1,4]thiazepin-4(5H)-yl)propan-1-one]
action potential shape ([6]; 1.0 μM): the normal AP shape was restored
elimination of EADs and delayed afterdepolarizations (DADs) ([6]; 1.0 μM): eliminated both EADs and delayed afterdepolarizations (DADs)
reversal of arrhythmias induced by dofetilide ([6]; 1 μM, FIG. 12): can reverse arrhythmias induced by dofetilide

Second part, led by results:

Kd ([2]; listed as 4-methoxy-3-methyl phenol): 13 µM
Kd [2]: ~13 µM
open probability Po ([3]; +10 μM 4-MmC after 6 mM caffeine (Po=0.071), 50 μM Ca2+, FIG. 3C): 0.015
Ki ([3]; skeletal muscle CRC, FIG. 5, unit inferred, read-out: Ki for inhibition of single channel activity): ~0.5 µM
effect on open probability (Po), in words ([3]; sub-micromolar concentrations, FIG. 5): significantly decreased
Compound: COc1ccc(O)cc1C [4-MmC, 4-methoxy-3-methylphenol]
decrease of open probability (Po) at sub-micromolar concentrations [1]: significantly decreased the open probability (Po)

IC50 [3, 9]: 0.24 ± 0.05 µM
potency of inhibition of single channel activity relative to K201 ([3]; skeletal muscle CRC, ratio of IC50 values): about 16 times
Compound: COc1ccc2c(c1)CN(C(=O)CCN1CCC(Cc3ccc4c(c3)OCO4)CC1)CCS2 [[1,3]dioxole derivative of K201, 3-(4-(benzo[d][1,3]dioxol-5-ylmethyl)piperidin-1-yl)-1-(7-methoxy-2,3-dihydrobenzo[f][1,4]thiazepin-4(5H)-yl)propan-1-one]
effect on amount of SR Ca2+ release compared to controls, in words ([5]; high concentrations): did not reduce the amount of SR Ca^2+ release
concentration causing enhancement of fractional change in Rhod-2 fluorescence (Ca2+ transient) ([5]; lowest concentration stated (as low as)): 10 nM
effect on Ca2+ transients, in words [5]: enhance Ca^2+ transients
effect on arrhythmias induced by dofetilide, in words ([4]; 1 μM test compound, dofetilide 0.5 μM): reverse arrhythmias
effect on EADs and AP shape, in words ([4]; 1.0 μM, dofetilide 0.5 μM, adult female rabbit hearts paced at 1.2 second intervals): all EADs were suppressed
duration of protective effects ([4]; continuous perfusion with dofetilide and test compound): 20 min

redox potential of the reactive thiols [7]: −147.7±2.8 mV
number of thiols reacting with CPM (RyR1): ~70 per monomer
Compound: CCCCNc1ccc(C(=O)OCCN(C)C)cc1 [tetracaine]

Kd [8]: ~12.4 µM
Compound: FKBP12: FK506 binding protein (calstabin1) that binds RyR1; endogenous electron donor
